EP1101496A1, “THERAPEUTIC AGENTS FOR ALLERGIC DISEASES” (FUJI YAKUHIN KOGYO KABUSHIKI KAISHA, priority 1998, dated 2000)

How the values were obtained:
[1] = test system: IgE-mediated auricle edema; experiment: Auricle edema in experimental atopic dermatitis model (anti-DNP IgE sensitization, DNFB elicitation); type: in vivo, Balb/c mice; settings: for % Inhibition vLPR: 7 or 8 days post-elicitation; for % Inhibition vLPR / % Inhibition IPR / % Inhibition LPR: painted on auricles 60 µg/ear/dose in ethanol twice a day; for % Inhibition IPR: 1 hour post-elicitation, 1 hour pre-elicitation to 6 days post-elicitation; for % Inhibition LPR: 1 day post-elicitation
Experimental: Intravenous injection of an anti-2,4-dinitrophenol (DNP) antibody (anti-DNP Ab, monoclonal IgE Ab; its antibody titer was 1 : 512 to 1 : 1024 by a rat heterologous passive cutaneous anaphylaxis reaction using a Wister rat) into a tail vein of female Balb/c mice (7-week old, body weight: 17 to 20 g, purchased from JAPAN SLC, Inc.) at a dose of […] per animal raised passive sensitization. Twenty four hours post-sensitization, 0.1% 2,4-dinitrofluorobenzene (DNFB; Nacalai Tesque, Inc.) in ethanol was painted onto both sides of a pair of mouse auricles at a dose of 10 µL per each side for elicitation.
Fresh unsensitized mice were painted with 0.1% DNFB in ethanol onto their ear in the same manner as aforementioned and served as a control group. Not only immediately prior to elicitation but also 1 hour, 5 hours, daily between Days 1 and 14, and on Day 16 post-elicitation, ear thickness was measured using a dial thickness gauge (Peacock Co.). Each degree of auricle edemas was calculated: Auricular Edema (µm)=(Ear Thickness Post-Elicitation, µm) - (Ear Thickness immediately prior to Elicitation, µm) [formula]
Balb/c mice were passively sensitized with anti-DNP IgE Ab in the same manner as in Example 1. Twenty four hours later, 0.1% DNFB in ethanol was painted onto both sides of a pair of mouse auricles at a dose of 10 µL per each side for elicitation.
Immediately prior to elicitation, 1 hour and on Day 1 post-elicitation, auricle thickness was measured in the same manner as in Example 1. Each therapeutic efficacy is recorded as a percent inhibition wherein the "auricle edema (untreated group)" is used as a control. Auricle Edema Inhibition (%) = [ 1 -(Auricle Edema (Treated Group))/(Auricle Edema (Untreated Group))] × 100 (%) [formula]
(§1) Mice were sensitized with anti-DNP IgE Ab and then elicited by painting 0.1% DNFB in ethanol onto both sides of a pair of mouse auricles at a dose of 10 µL per each side 24 hours post-sensitization in the same manner as in Example 1. […] Immediately prior to elicitation, and on Day 7 post-elicitation, auricle thickness was similarly measured. Each therapeutic efficacy is recorded as a percent inhibition wherein the auricle edema in the untreated group is used as a control.
as §1, with “(untreated group)” for “in the untreated group”
Mice were sensitized with anti-DNP IgE Ab and then elicited by painting 0.1% DNFB in ethanol onto both sides of a pair of mouse auricles at a dose of 10 µL per each side 24 hours post-sensitization in the same manner as in Example 1. […] Immediately prior to elicitation, at 1 and 4 hours and on Days 1, 3 and 7 post-elicitation, auricle thickness was similarly measured. From each auricle edema (µm) based on the auricle thickness immediately prior to elicitation, especially a prophylactically therapeutic efficacy of the test compound was evaluated.
Mice were sensitized with anti-DNP IgE Ab and then elicited by painting 0.1% DNFB in ethanol onto both sides of a pair of mouse auricles at a dose of 10 µL per each side 24 hours post-sensitization in the same manner as in Example 1. A solution of a test metalloproteinase inhibitor (Compound No. 8; 50 µg/ear/dose, twice a day) in ethanol was painted onto both sides of a pair of the mouse auricles 1 hour pre-elicitation, 0.25, 3, 4, 5 and 6 days post-elicitation (5 animals per group). Immediately prior to elicitation, at 0.5, 1 and 4 hours and on Days 1, 3 and 7 post-elicitation, auricle thickness was similarly measured. Each amount of auricle edemas was calculated (average± standard deviation). […]

Allergic Peritonitis = experiment: Allergic peritonitis induced by ovalbumin; type: in vivo, male Balb/c mice; settings: for inhibition of infiltration of lymphocytes/macrophages into the peritoneal cavity: ovalbumin challenge
Experimental: In the same manner as in Example 23, mice were actively sensitized with ovalbumin and Alum, and, on Day 14 after the initial sensitization, elicited with an inducing antigen solution. A test metalloproteinase inhibitor compound (Compound No. 20: 30 mg/kg) or a negative control solvent, physiological saline (10 mL/kg), was administered subcutaneously to each animal 6, 3 hours, and 5 minutes pre-induction, 3, and 6 hours post-induction. At 24 hours post-induction, a physiological saline (containing heparin) was injected intraperitoneally at 4 mL/mouse for peritoneal lavage. An aliquot of the retrieved washout medium was taken, and not only measured for a PEC density but also stained for PEC followed by fractional counting. Each effect of the compound on the total PEC number (PEC density× 4 mL), and eosinophils and lymphocytes/macrophages is shown in Table 15. Almost similarly to Examples 22 to 24, the total PEC number and the numbers of eosinophils and lymphocytes/macrophages in the peritoneal cavity are reduced.
Each efficacy on intraperitoneal exudation of neutrophils was examined according to the methods as disclosed in Ouchi et al., "Seibutsu Yakukagaku Jikken Koza, Ensho To Allergy (Inflammation and Allergy) I-3", pp.139 to 151, Hirokawa Publishing Co., Japan and Spicer et al., The International Archives of Allergy and Applied Immunology, 81: 81 to 84, 1986.
In the same manner as in Example 23, male Balb/c mice were sensitized with ovalbumin and an aluminum hydroxide gel, and, on Day 14 after the initial sensitization, elicited with an antigen solution to raise allergic peritonitis. Each test metalloproteinase inhibitor (Compound No. 20 or 21: 30 mg/kg) or a negative control solvent, physiological saline (10 mL/kg), was administered subcutaneously to each animal 1 hour prior to induction, and 3 hours post-induction. At 6 hours post-induction, peritoneal lavage was done similarly to Example 22, measured for a PEC density, and counted for the total PEC number. In the same manner as in Example 22, PEC was stained, and subjected to fractional counting under a microscope with classification into neutrophils, eosinophils, lymphocytes/macrophages and basophils based on their form and stain nature. Each cell ratio was as follows: 2.3% (neutrophil), 1.1% (eosinophil), 95.4% (lymphocyte/macrophage), and 1.2% (basophil) for unsensitized/physiological saline-administered mice; and 5.7% (neutrophil), 11.9% (eosinophil), 81.3% (lymphocyte/macrophage), and 1.1% (basophil) for sensitized/physiological saline-administered mice. By a similar line of reasoning in Example 22, basophils were excluded from subjects to be examined. In the same manner as in Example 22, intraperitoneal exudation inhibition rates were calculated and expressed as the therapeutic efficacies.

[2] = 30 mg/kg s.c. 6, 3 hours and 5 minutes pre-induction, 3 and 6 hours post-induction, 24 hours post-induction (Example 25)
[3] = 30 mg/kg s.c. 1 hour prior to and 3 hours post-induction, 6 hours post-induction (Example 26)

Row | Structure (SMILES) | % Inhibition vLPR [1] [%] | % Inhibition IPR [1] [%] | % Inhibition LPR [1] [%] | Leukocyte exudate inhibition rate (%) (Macrophages)/(Lymphocytes) (Allergic Peritonitis; [2]) | Leukocyte exudate inhibition rate (%) Eosinophils (Allergic Peritonitis; [2]) [%] | Leukocyte exudate inhibition rate (%) Total PEC Number (Allergic Peritonitis; [2]) [%] | Leukocyte exudate inhibition rate (%) Eosinophils (Allergic Peritonitis; [3]) [%] | Leukocyte exudate inhibition rate (%) Neutrophils (Allergic Peritonitis; [3]) [%] | Leukocyte exudate inhibition rate (%) Total PEC Number (Allergic Peritonitis; [3]) [%] | inhibitory efficacy on IgE-mediated auricle edema in IPR, LPR and vLPR (FIG. 6) ([1]; 60 mg/kg s.c. only 24 and 2 hours prior to elicitation, compared with prednisolone 10 mg/kg i.p.) | inhibitory efficacy on IgE-mediated auricle edema in IPR, LPR and vLPR (FIG. 7) ([1]; painted on auricles, 50 µg/ear/dose in ethanol, 1 hour pre-elicitation and 0.25, 3, 4, 5, 6 days post-elicitation) | inhibition of infiltration of lymphocytes/macrophages into the peritoneal cavity (Allergic Peritonitis; 30 mg/kg i.p. 5 minutes prior to and 3 and 6 hours post-induction (Example 23)) [%] | inhibition of infiltration of lymphocytes/macrophages into the peritoneal cavity (Allergic Peritonitis; 30 mg/kg s.c. 6 hours and 5 minutes prior to induction, 24 hours after induction (Example 24)) [%]
1 | CNC(=O)[C@H](Cc1ccc(NC(=N)N)cc1)NC(=O)[C@H](CC(C)C)C(CCCc1ccccc1)C(=O)NO.Cl (single isomer, unassigned) [Compound No. 20, N-[4-(N-hydroxyamino)-2(R)-isobutyl-3(R or S)-(3-phenyltrimethylene)succinyl]-L-4'-guanidophenylalanine-N-methylamide 1 hydrochloride] | 31 | 56 | 58 | 55.1 | 38.9 | 49.6 | 38.4 | 41.4 | 40.9 |  |  |  | 
2 | CNC(=O)[C@H](Cc1ccc(N=C(N)N)cc1)NC(=O)[C@@H](CC(=O)NO)CC(C)C.O=S(=O)(O)O [Compound No. 21, N-[4-(N-hydroxyamino)-2(R)-isobutylsuccinyl]-L-4'-guanidophenylalanine-N-methylamide 1 sulfate] | 35 | 31 | 22 |  |  |  |  | 27.1 | 38.6 |  |  |  | 
3 | CNC(=O)[C@H](Cc1ccc(NC(=N)N)cc1)NC(=O)[C@H](CC(C)C)C(CCCc1ccccc1)C(=O)NO (single isomer, unassigned) [Compound No. 8, N-[4-(N-hydroxyamino)-2(R)-isobutyl-3(R or S)-(3-phenyltrimethylene)succinyl]-L-4'-guanidophenylalanine-N-methylamide 1 acetate] |  |  |  |  |  |  |  |  |  | edema-inhibitory activity equivalent to that of prednisolone in IPR and slightly and markedly higher than that of prednisolone in LPR and vLPR | endowed with an inhibitory activity on edemas in any of IPR, LPR, and vLPR | 74.9 | 91.2
